Measured values reported in patent US10010520B2, “Combined application of isothiocyanate compound and anti-cancer medicine” (JC (WUXI) COMPANY, INC., priority 2013, dated 2018).
Several values for one entry are separate records, joined by “and”; a condition that tells them apart may be missing. Equal entries are not always repeated. Where two headings read alike, the source gives them in different places.

What was measured:
DU145 cells = assay: CellTiter-Glo cell viability, drugs alone or in combination, DU145 cells; type: cell-based, human
Protocol: (§1) Cell culture: Androgen-dependent human prostate cancer cells LNCaP, from Shanghai Medicilon Ltd., were placed in a 37° C., 5% CO2 cell incubator, and were cultured in RPMI1640 culture medium with 10% FBS. Androgen-independent human prostate cancer cells DU145, PC-3, from Shanghai Medicilon Ltd., were placed in a 37° C., 5% CO2 cell incubator, and were cultured in F12 culture medium with 10% FBS.
(§2) isothiocyanates or derivatives thereof and DNA-effecting or influencing anticancer drugs, kinase-inhibiting anticancer drugs or hormonal anticancer drugs for endocrine therapy were administered separately or in combination to cancer cells. Cells were seeded into 384-well plates, and cultured for 24 hours in a CO2 incubator. Drugs were dissolved in DMSO and diluted to 9 concentration-gradients in 96 well plates, and then added to corresponding cells in 384-well plates, in which the concentrations of DMSO in 384 well plates were less than 1%. Triplicate wells were set for each concentration. After administration, the cells were cultured in the CO2 incubator for another 72 hrs, and afterwards, cell viability was tested by using CellTiter-Glo® reagent and luminescence detector. And IC50 values of each administration group were calculated.
(§3) CI value was calculated by the following formula: CI=(Am)50/(As)50+(Bm)50/(Bs)50,
(§4) Triplicate wells were set for each co-administration cell well.
(§5) After administration, cells were cultured in the CO2 incubator for another 72 hrs, and afterwards, cell viability was tested by using CellTiter-Glo® reagent and luminescence detector. Curves were plotted according to concentrations or logarithm concentrations of drug A vs cell inhibition rate in the corresponding cell well, and IC50, i.e. (Am)50 was calculated.
(§6) 9 concentration gradients of drug A were set (A1, A2, A3, A4, A5, A6, A7, A8, A9), and administrated alone to the corresponding cells in the 384 well plate, and triplicate wells were set for each administration concentration. After administration, the cells were cultured in the CO2 incubator for another 72 hrs, and afterwards, cell viability was tested by using CellTiter-Glo® reagent and luminescence detector. Curves were plotted according to concentration or logarithm concentration of drug A vs the cell inhibition rate in the corresponding cell well, and IC50, i.e. (As)50 was calculated.
(§7) After administration, the cells were cultured in the CO2 incubator for another 72 hrs, and afterwards, cell viability was tested by using CellTiter-Glo® reagent and luminescence detector.

LNCaP cells = assay: CellTiter-Glo cell viability, drugs alone or in combination, LNCaP cells; type: cell-based, human; conditions: LNCaP cells, 72 hrs
Protocol: as §1, §2, §3, §4, §5, §6, §7

PC-3 cells = assay: CellTiter-Glo cell viability, drugs alone or in combination, PC-3 cells; type: cell-based; conditions: Homo sapiens, 72 hrs
Protocol: as §1
isothiocyanates or derivatives thereof and DNA-effecting or influencing anticancer drugs, kinase-inhibiting anticancer drugs or hormonal anticancer drugs for endocrine therapy were administered separately or in combination to cancer cells. […] After administration, the cells were cultured in the CO2 incubator for another 72 hrs, and afterwards, cell viability was tested by using CellTiter-Glo® reagent and luminescence detector. And IC50 values of each administration group were calculated.
CI value was calculated by the following formula: CI=(Am)50/(As)50+(Bm)50/(Bs)50, […]
as §5, with “calculated. […]” for “calculated.”

HeLa cells = assay: CellTiter-Glo cell viability, drugs alone or in combination, HeLa cells; type: cell-based, human
Protocol: as §2, §3, §4, §5, §6, §7

Saos-2 cells = assay: CellTiter-Glo cell viability, drugs alone or in combination, Saos-2 cells; type: cell-based, human; conditions: Saos-2 cells, 72 hrs
Protocol: as §2, §3, §4, §5, §6, §7

[1] = system: human leukemia HL-60 cells; assay: CellTiter-Glo cell viability, drugs alone or in combination, HL-60 cells; type: cell-based; conditions: read-out: (As)50, IC50 of drug A when used alone
Protocol: as §2, §3, §4, §5, §6, §7

[2] = system: pancreatic cancer cells PANC-1; assay: CellTiter-Glo cell viability, drugs alone or in combination, PANC-1 cells; type: cell-based, human; conditions: PANC-1 cells, 72 hrs
Protocol: as §2, §3, §4, §5, §6, §7

[3] = system: human kidney cancer cells 786-O; assay: CellTiter-Glo cell viability, drugs alone or in combination, 786-O cells; conditions: 786-0, 72 h, read-out: (As)50, IC50 of drug A when used alone, 786-O cells, 72 hrs
[4] = system: Human breast cancer MDA-MB-231 cells; assay: CellTiter-Glo cell viability, drugs alone or in combination, MDA-MB-231 cells; conditions: 72 hrs
HT29 cells = assay: CellTiter-Glo cell viability, drugs alone or in combination, HT29 cells; conditions: Homo sapiens, HT-29, 72 h
Protocol: After administration, cells were cultured in the CO2 incubator for another 72 hrs, and afterwards, cell viability was tested by using CellTiter-Glo® reagent and luminescence detector. Curves were plotted according to concentrations or logarithm concentrations of drug A vs cell inhibition rate in the corresponding cell well, and IC50, i.e. (Am)50 was calculated. […]

Jurkat E6-1 cells = assay: CellTiter-Glo cell viability, drugs alone or in combination, Jurkat E6-1 cells; type: cell-based, human; conditions: Jurkat E6-1 cells, 72 hrs, read-out: (As)50, IC50 of drug A when used alone
Protocol: as §2, §3, §4, §5, §6, §7

SK-MEL-28 cells = assay: CellTiter-Glo cell viability, drugs alone or in combination, SK-MEL-28 cells; type: cell-based; conditions: Homo sapiens, 72 hrs
Protocol: as §2, §3, §4
as §5, with “calculated. […]” for “calculated.”

A549 cells = assay: CellTiter-Glo cell viability, drugs alone or in combination, A549 cells; type: cell-based, human
Protocol: as §2, §3, §4, §5, §6, §7

[5] = system: human gastric cancer AGS cells; assay: CellTiter-Glo cell viability, drugs alone or in combination, AGS cells
U251 cells = assay: CellTiter-Glo cell viability, drugs alone or in combination, U251 cells; conditions: Homo sapiens, U-251, 72 h, read-out: (As)50, IC50 of drug A when used alone, U251 cells; 72 hrs
OVCAR-3 cells = assay: CellTiter-Glo cell viability, drugs alone or in combination, OVCAR-3 cells; conditions: 72 hrs
[6] = Homo sapiens, DU-145, 72 h, read-out: (Bs)50, IC50 of drug B when used alone
[7] = Homo sapiens, LNCaP, 72 h, read-out: (Bs)50, IC50 of drug B when used alone
[8] = read-out: (Bs)50, IC50 of drug B when used alone
[9] = Homo sapiens, HeLa, 72 h, read-out: (As)50, IC50 of drug A when used alone
[10] = Homo sapiens, SAOS-2, 72 h, read-out: (As)50, IC50 of drug A when used alone
[11] = Homo sapiens, PANC-1, 72 h, read-out: (As)50, IC50 of drug A when used alone
[12] = Homo sapiens, LNCaP, 72 h, read-out: (As)50, IC50 of drug A when used alone
[13] = Homo sapiens, MDA-MB-231, 72 h, read-out: (As)50, IC50 of drug A when used alone, MDA-MB-231 cells
[14] = read-out: (As)50, IC50 of drug A when used alone
[15] = 72 hrs, read-out: (As)50, IC50 of drug A when used alone
[16] = Homo sapiens, AGS, 72 h, read-out: (Bs)50, IC50 of drug B when used alone, AGS cells
[17] = Homo sapiens, OVCAR-3, 72 h, read-out: (Bs)50, IC50 of drug B when used alone, OVCAR-3 cells
[18] = Homo sapiens, A549, 72 h, read-out: (Bs)50, IC50 of drug B when used alone

Question: `C[C@]12CC[C@H](O)CC1=CC[C@@H]1[C@@H]2CC[C@]2(C)C(c3cccnc3)=CC[C@@H]12` [Abiraterone, abiraterone, reference compound] was tested. Which IC50 (DU145 cells; [6]) did it give?
Answer: The IC50 was 37.4 µM.

Question: What about the IC50 (LNCaP cells; [7]) of the same compound?
Answer: The IC50 was 21.2 µM.

Question: And the IC50 (PC-3 cells; [8])?
Answer: Its IC50 is 101 µM.

Question: How did the IC50 (HeLa cells; [9]) turn out when `S=C=NCc1ccccc1` [Benzyl isothiocyanate, benzyl isothiocyanate] was run?
Answer: The IC50 was 14.7 µM.

Question: And the IC50 (Saos-2 cells; [10])?
Answer: Its IC50 is 14.5 µM.

Question: What about the IC50 ([1]; Homo sapiens, HL-60, 72 h) of the same compound?
Answer: The IC50 was 11.5 µM.

Question: And the IC50 [2, 11]?
Answer: The IC50 was 23.4 µM.

Question: And the IC50 (LNCaP cells; [12])?
Answer: The IC50 was 18.5 µM.

Question: And the IC50 [3]?
Answer: Its IC50 is 13.2 µM.

Question: What about the IC50 [4, 13] of the same compound?
Answer: The IC50 was 11.4 µM.

Question: With `CC(O)(CS(=O)(=O)c1ccc(F)cc1)C(=O)Nc1ccc(C#N)c(C(F)(F)F)c1` (stereo not drawn) [Bicalutamide, bicalutamide, reference compound] as the compound, how does the IC50 (DU145 cells; [6]) read?
Answer: The IC50 was 130 µM.

Question: And the IC50 (LNCaP cells; [7])?
Answer: Its IC50 is 72.5 µM.

Question: And the IC50 (LNCaP cells; [8])?
Answer: The IC50 was 70 µM.

Question: Which IC50 (DU145 cells; [6]) does the source give for `CO[C@H]1C(=O)[C@]2(C)[C@@H](OC)C[C@H]3OC[C@@]3(OC(C)=O)[C@H]2[C@H](OC(=O)c2ccccc2)[C@]2(O)C[C@H](OC(=O)[C@H](O)[C@@H](NC(=O)OC(C)(C)C)c3ccccc3)C(C)=C1C2(C)C` [Cabazitaxel] here?
Answer: The IC50 was 0.0265 µM.

Question: `Nc1nc2c(c(=O)[nH]1)N(C=O)C(CNc1ccc(C(=O)N[C@@H](CCC(=O)O)C(=O)O)cc1)CN2` (stereo partly drawn) [Leucovorin, reference compound] was tested. Which IC50 (HT29 cells; [8]) did it give?
Answer: Its IC50 is > 100 µM.

Question: Which results are given for `S=C=NCCc1ccccc1` [Phenethyl isothiocyanate]?
Answer: IC50 (HeLa cells; [9]): 16.1 µM; IC50 (Jurkat E6-1 cells; Homo sapiens, Jurkat E6.1, 72 h): 12.1 µM; IC50 (Jurkat E6-1 cells): 11.6 µM and 12.1 µM and 11.5 µM; IC50 (Saos-2 cells; [10]): 20.5 µM; IC50 (SK-MEL-28 cells; [14]): 32.7 µM; IC50 ([1]; 72 hrs): 6.66 µM; IC50 ([1]; Homo sapiens, HL-60, 72 h): 6.27 µM; IC50 (A549 cells; [15]): 22.3 µM; IC50 (A549 cells; Homo sapiens, A549, 72 h, read-out: (As)50, IC50 of drug A when used alone): 22 µM; IC50 [2, 11]: 19.6 µM; IC50 (DU145 cells; [15]): 19.4 µM; IC50 (LNCaP cells; [12]): 20.4 µM; IC50 (PC-3 cells; [14]): 52.6 µM; IC50 ([5]; Homo sapiens, AGS, 72 h, read-out: (As)50, IC50 of drug A when used alone, AGS cells): 14.7 µM; IC50 ([5]; read-out: (As)50, IC50 of drug A when used alone, AGS cells, 72 hrs): 11.8 µM; IC50 (U251 cells): 20.9 µM; IC50 (HT29 cells; [14]): 29.2 µM; IC50 [3]: 16 µM; IC50 (OVCAR-3 cells; read-out: (As)50, IC50 of drug A when used alone, OVCAR-3 cells): 31.8 µM and 9.87 µM; IC50 [4, 13]: 25.1 µM

Question: `CCCS(=O)(=O)Nc1ccc(F)c(C(=O)c2c[nH]c3ncc(-c4ccc(Cl)cc4)cc23)c1F` [Vemurafenib, reference compound] was tested. Which IC50 (SK-MEL-28 cells; [8]) did it give?
Answer: Its IC50 is 1.2 µM.

Question: What does the source list for `COc1cccc2c1C(=O)c1c(O)c3c(c(O)c1C2=O)C[C@@](O)(C(=O)CO)C[C@@H]3O[C@H]1C[C@H](N)[C@H](O)[C@H](C)O1` [adriamycin, reference compound]?
Answer: IC50 (Saos-2 cells; Homo sapiens, SAOS-2, 72 h, read-out: (Bs)50, IC50 of drug B when used alone): 0.899 µM; IC50 (Saos-2 cells; [8]): 0.574 µM; IC50 [5, 16]: 0.0534 µM; IC50 (OVCAR-3 cells; [17]): 1.74 µM

Question: How did the IC50 (HeLa cells; 72 hrs, read-out: (Bs)50, IC50 of drug B when used alone) turn out when `N.N.[Cl][Pt][Cl]` [cisplatin, Cisplatin, reference compound] was run?
Answer: Its IC50 is 32.8 µM.

Question: What about the IC50 (OVCAR-3 cells; read-out: (Bs)50, IC50 of drug B when used alone, OVCAR-3 cells) of the same compound?
Answer: Its IC50 is 20.6 µM.

Question: With `CC(=O)O[C@@]12CO[C@@H]1C[C@H](O)[C@@]1(C)C(=O)[C@H](O)C3=C(C)[C@@H](OC(=O)[C@H](O)[C@@H](NC(=O)OC(C)(C)C)c4ccccc4)C[C@@](O)([C@@H](OC(=O)c4ccccc4)[C@H]21)C3(C)C` [docetaxel, reference compound] as the compound, how does the IC50 [5, 16] read?
Answer: Its IC50 is 0.00974 µM.

Question: And the IC50 ([4]; read-out: (Bs)50, IC50 of drug B when used alone, MDA-MB-231 cells)?
Answer: Its IC50 is 0.391 µM.

Question: How did the IC50 (A549 cells; [18]) turn out when `Nc1ccn([C@@H]2O[C@H](CO)[C@@H](O)C2(F)F)c(=O)n1` [gemcitabine, Gemcitabine, reference compound] was run?
Answer: The IC50 was 9.54 µM.

Question: And the IC50 [2, 8]?
Answer: The IC50 was 32.4 µM.

Question: And the IC50 (OVCAR-3 cells; [17])?
Answer: The IC50 was 89.7 µM.

Question: With `CN(Cc1cnc2nc(N)nc(N)c2n1)c1ccc(C(=O)N[C@@H](CCC(=O)O)C(=O)O)cc1` [methotrexate, reference compound] as the compound, how does the IC50 (A549 cells; [18]) read?
Answer: The IC50 was 0.08 µM.
